# Changes are numbered by the printed parent chain.
# Experiments:
# [1] = biological target: T1, RXRα wildtype LBD (Homo sapiens, UniProt P19793); assay: Isothermal titration calorimetry, RXRα wildtype LBD; format: binding; conditions: 25°C
# T1 construct: MBP-Asn10-His8-TEV site (N, cleaved yes); made in house; host or cells: E. coli T7 express (co-expressed with GroEL/ES)
# T1 sequence (P19793 223-462): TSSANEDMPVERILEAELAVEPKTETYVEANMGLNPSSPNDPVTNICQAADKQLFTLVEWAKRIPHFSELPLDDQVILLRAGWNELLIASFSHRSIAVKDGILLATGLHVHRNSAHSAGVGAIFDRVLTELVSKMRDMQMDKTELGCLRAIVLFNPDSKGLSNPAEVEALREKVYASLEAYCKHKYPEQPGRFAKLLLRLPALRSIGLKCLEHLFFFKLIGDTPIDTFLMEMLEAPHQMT
# Experimental: SI method 1: LBD pulldown
# In order to verify proper dimer formation capability of the majority of the protein preparation a pulldown experiment was performed. Therefore, small centrifugal filter columns (nylon membrane with […] pore size; VWR) were loaded with 20 µl of Pierce® high capacity streptavidin agarose beads (Thermo Scientific) equilibrated in HTRF buffer [25 mM HEPES pH 7.5, 150 mM KF, 10% (w/v) glycerol, 5 mM DTT (fresh)], then 20 µl of a mixture of biotin coupled RXRα LBD (4 µg) and the respective PPAR LBD (1.4 µg) was applied. After incubation for 10 min at room temperature followed by centrifugation for 2 min and 900 x g the input mixture as well as the flowthrough was analyzed via SDS PAGE. Gels were scanned using an Li-Cor Odyssey imager (LI-COR® Biosciences GmbH, Germany). […]
# The heats of dilution resulting from titrating one of the RXRα LBD proteins into the cell containing only buffer were recorded separately and subtracted from the raw ITC data obtained with compound. Data were analyzed using the NanoAnalyze software package (version 3.7.5). […] Free energy change (ΔG) was calculated using the equation […]
# and from there the entropy (ΔS) was calculated from […]
# 25 injections of 2 µl were performed after an initial injection of 0.5 µl. […] The heats of dilution resulting from titrating of protein into buffer were recorded separately and subtracted. […]
# [2] = biological target: T2, PPARγ LBD (Homo sapiens, UniProt P37231); assay: Two-dimensional titration of SR11237 and unlabeled mutant RXRα LBD: CBP-1 recruitment by sGFP-PPARγ LBD (HTRF); format: biochemical; conditions: combined addition of SR11237 and RXRα at concentrations equal to PPARγ (100 nM) and higher
# T2 construct: MBP-Asn10-His8-TEV site (N, cleaved yes); made in house; host or cells: E. coli T7 express (co-expressed with GroEL/ES)
# T2 sequence (P37231 1-505): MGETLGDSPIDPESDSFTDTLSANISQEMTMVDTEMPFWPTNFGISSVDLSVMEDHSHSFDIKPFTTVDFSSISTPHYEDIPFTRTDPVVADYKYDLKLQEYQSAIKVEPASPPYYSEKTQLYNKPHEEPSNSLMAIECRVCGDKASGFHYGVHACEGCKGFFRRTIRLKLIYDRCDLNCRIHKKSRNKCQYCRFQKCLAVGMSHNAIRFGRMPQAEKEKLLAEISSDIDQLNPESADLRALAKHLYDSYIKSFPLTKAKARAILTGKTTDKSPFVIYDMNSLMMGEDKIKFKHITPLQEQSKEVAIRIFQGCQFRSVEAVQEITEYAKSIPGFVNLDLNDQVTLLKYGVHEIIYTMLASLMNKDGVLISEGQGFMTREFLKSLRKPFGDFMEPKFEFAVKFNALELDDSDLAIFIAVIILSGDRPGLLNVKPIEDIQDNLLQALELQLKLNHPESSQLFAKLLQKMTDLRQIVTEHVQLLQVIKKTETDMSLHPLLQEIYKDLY
# [3] = biological target: T3, Gal4-RXRα wildtype (Homo sapiens, UniProt P19793); assay: Gal4-RXRα wildtype / VP16-SRC1-2 hybrid reporter gene assay in HEK293T cells; conditions: Gal4-RXRα with VP16-SRC1
# T3 sequence (P19793 225-462): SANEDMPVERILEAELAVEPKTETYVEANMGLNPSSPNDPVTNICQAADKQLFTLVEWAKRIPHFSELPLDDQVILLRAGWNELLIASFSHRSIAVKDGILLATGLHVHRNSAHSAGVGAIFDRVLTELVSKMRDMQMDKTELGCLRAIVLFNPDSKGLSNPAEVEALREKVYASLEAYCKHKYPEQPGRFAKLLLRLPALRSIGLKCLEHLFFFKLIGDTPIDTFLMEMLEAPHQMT
# T3 sequence (Q15788 676-701 C676S partner): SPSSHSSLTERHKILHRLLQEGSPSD
# [4] = biological target: T4, Gal4-RXRα total mutant (Homo sapiens, UniProt P19793, E453R/F450Y/K284E/V280T/V298T); assay: Gal4-RXRα total mutant / VP16-SRC1-2 hybrid reporter gene assay in HEK293T cells
# T4 sequence (P19793 225-462 V280T/K284E/V298T/F450Y/E453R): T3 sequence (P19793 225-462) with V56T, K60E, V74T, F226Y, E229R
smiles,measurement,setting,value
CC1(C)CCC(C)(C)c2cc(C3(c4ccc(C(=O)O)cc4)OCCO3)ccc21 [SR11237],binding affinity (ITC),[1],comparable affinity
same,CBP-1 recruitment relative to full activation of monomeric PPARγ with rosiglitazone,[2],up to 26%
same,transactivation of reporter gene expression,[3],substantial increase in transactivation
same,transactivation of reporter gene expression,"[4]; RXRα mutant, compared with DMSO control",substantial increase in transactivation
same,transactivation by the RXRα mutant in comparison with RXRα wt,[4]; at ≥ 0.1 μM SR11237,markedly reduced
